Reference: ChEMBL document CHEMBL3244234, “Alteration of relative affinities toward myocardial and vascular beta adrenoceptors induced by side-chain substitution of aryloxypropanolamines” (J Med Chem, 1978)

Columns and labels:
[1] = test system: Felis catus; assay: (§1) In vivo inhibition of beta-2 adrenoceptor in chloralose-anesthetized vagotomized cat assessed as inhibition of isoproterenol-induced fall in diastolic pressure; format: functional, organism-based; conditions: read-out: pA2 (converted)
[2] = 1-Octanol-phosphate buffer apparent partition coefficient, log P of the compound at pH 7.4; format: physicochemical
[3] = test system: Felis catus; assay: In vivo inhibition of beta-1 adrenoceptor in vagotomized cat assessed as inhibition of isoproterenol-induced tachycardia; format: functional, organism-based; conditions: read-out: pA2 (converted)
[4] = test system: Felis catus; assay: as §1, with “Potency ratio for in vivo inhibition of beta-1 adrenoceptor in vagotomized cat assessed as inhibition of isoproterenol-induced tachycardia to in” for “In”; format: functional
[5] = test system: Felis catus; assay: Potency ratio for in vivo inhibition of beta-2 adrenoceptor in chloralose-anesthetized vagotomized cat assessed as inhibition of isoproterenol-induced fall in diastolic pressure to in vivo inhibition of beta-1 adrenoceptor in vagotomized cat assessed as inhibition of isoproterenol-induced tachycardia; format: functional
[6] = species: Cavia porcellus; assay: Selectivity for guinea pig right atria beta-1 adrenoceptor over guinea pig trachea beta-2 adrenoceptor

**Q.** Which results are given for `CC(C)N[C@H](c1ccccc1)[C@@H](O)COc1ccccc1` (racemic)?
**A.** Kb [1]: > 10000 nM; logD [2]: 2.1; Kb [3]: > 10000 nM

**Q.** For `Cc1ccc(OCC(O)CNC(C)C)cc1` (racemic), which Kb [1] is on record?
**A.** Its Kb is 234 nM.

**Q.** What about the logD [2] of the same compound?
**A.** The logD was 0.423.

**Q.** What about the Kb [3] of the same compound?
**A.** The Kb was 234 nM.

**Q.** And the Ratio [4]?
**A.** The Ratio was 1.

**Q.** Which results are given for `COc1ccc(CCNCC(O)COc2ccccc2)cc1OC.Cl` (racemic)?
**A.** Kb [1]: 692 nM; logD [2]: 1.7; Kb [3]: 63.1 nM; Ratio [4]: 10

**Q.** Which results are given for `CC(C)N[C@H](C)[C@@H](O)COc1ccccc1.Cl` (racemic)?
**A.** Kb [1]: 151 nM; Ratio [5]: 3; logD [2]: -0.244; Kb [3]: 501 nM; Ratio [4]: 0.3

**Q.** Which results are given for `CC(=O)Nc1ccc(OCC(O)CNC(C)C)cc1` (racemic) [PRACTOLOL]?
**A.** Kb [1]: 5010 nM; logD [2]: -1.05; Kb [3]: 229 nM; Ratio [4]: 22

**Q.** Which Kb [1] does the source give for `COc1ccc(CCN[C@H](C)[C@@H](O)COc2ccccc2)cc1OC.Cl` (racemic) here?
**A.** The Kb was greater than 10000 nM.

**Q.** And the logD [2]?
**A.** The logD was 1.66.

**Q.** And the Kb [3]?
**A.** The Kb was 219 nM.

**Q.** And the Ratio [4]?
**A.** The Ratio was greater than 40.

**Q.** Which results are given for `CC(C)N[C@@H](C)[C@@H](O)COc1ccccc1.O=C(O)C(=O)O` (racemic)?
**A.** Kb [1]: 631 nM; Ratio [5]: 3; logD [2]: -0.244; Kb [3]: 2190 nM; Ratio [4]: 0.3

**Q.** With `Cc1ccc([C@@H](O)[C@H](C)NC(C)C)cc1` (racemic) as the compound, how does the Kb [1] read?
**A.** The Kb was 3390 nM.

**Q.** And the logD [2]?
**A.** The logD was 0.149.

**Q.** What about the Kb [3] of the same compound?
**A.** Its Kb is greater than 10000 nM.

**Q.** What about the Ratio [4] of the same compound?
**A.** Its Ratio is less than 0.3.

**Q.** With `CC(C)NCC(O)COc1ccccc1` (racemic) as the compound, how does the Kb [1] read?
**A.** The Kb was 204 nM.

**Q.** And the logD [2]?
**A.** Its logD is -0.137.

**Q.** And the Kb [3]?
**A.** The Kb was 44.7 nM.

**Q.** What about the Selectivity ratio [6] of the same compound?
**A.** Its Selectivity ratio is 25.

**Q.** And the Ratio [4]?
**A.** The Ratio was 5.
